Assay [1] deals with T1, BRD4 bromo domain 2 [BRD4(2)] (Homo sapiens, UniProt O60885).
T1 construct: N-terminally His6-tagged BRD4(2) (amino acids 357-445); made in house; host or cells: E. coli
Description: BRD4(2)/acetylated peptide H4 TR-FRET binding assay. The note with it: His6-BRD4(2) (aa 357-445) vs acetylated histone H4 peptide. An outline of the steps: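 His6-BRD4(2) (aa 357-445, E. coli-expressed, 100 nM) pre-incubated 10 min with compound (11 concentrations, 0.1 nM-20 μM, duplicates), then with biotinylated tetra-acetylated H4 peptide in HEPES pH 7.5 buffer, 1 h at 22 °C plus 3 h to overnight at 4 °C. TR-FRET 665/620 ratio; IC50 from 4-parameter fit.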

The next assay has as its system B16F10 cells. Description: Cell proliferation assay B16F10 (alamarBlue). The format is cell-based. The conditions noted are these: Mus musculus, B16-F10, melanoma (BRAF wild-type) cells, 96 hours. Here is the method: (§1) In accordance with the invention, the ability of the substances to inhibit cell proliferation was determined. Cell viability was determined by means of the alamarBlue® reagent (Invitrogen) in a Victor X3 Multilabel Reader (Perkin Elmer). The excitation wavelength was 530 nm and the emission wavelength […].
The B16F10 cells (ATCC, CRL-6475) were seeded at a concentration of 300-500 cells/well in 100 μl of growth medium (DMEM with phenol red, 10% FCS) on 96-well microtitre plates.
(§2) After overnight incubation at 37° C., the fluorescence values (CI values) were determined. Then the plates were treated with various substance dilutions (1E-5 M, 3E-6 M, 1E-6 M, 3E-7 M, 1E-7 M, 3E-8 M, 1E-8 M) and incubated at 37° C. over 96 hours (MOLM-13, B16F10, CHL-1 cells) or 120 hours (MOLP-8 cells). Subsequently, the fluorescence values were determined (CO values). For the data analysis, the CI values were subtracted from the CO values and the results were compared between cells which had been treated with various dilutions of the substance or only with buffer solution. The IC50 values (substance concentration needed for 50% inhibition of cell proliferation) were calculated therefrom.
(§3) The substances were tested in the cell lines in Table 2, which represent the indications specified by way of example: […]

The subject of a further assay is CHL-1 cells. Briefly: Cell proliferation assay CHL-1 (alamarBlue). Format: cell-based. The note with it: Homo sapiens, melanoma (BRAF wild-type) cells, 96 hours. The procedure:
as §1
The CHL-1 cells (ATCC, CRL-9446) were seeded at a concentration of 1000 cells/well in 100 μl of growth medium (DMEM with glutamine, 10% FCS) on 96-well microtitre plates.
as §2, §3

In patent publication US20170121322A1, “BET-PROTEIN INHIBITING 3,4-DIHYDROPYRIDO[2,3-B]PYRAZINONES WITH META-SUBSTITUTED AROMATIC AMINO- OR ETHER GROUPS” (Bayer Pharma Aktiengesellschaft, priority 2014, published 2017) one finds IC50 data, which are given here for 18 molecules.

Regarding `C[C@@H]1C(=O)N(C)c2ccc(Nc3cccc(S(C)(=O)=O)c3)nc2N1C1CCN(C)CC1` [Example 11, (3R)-1,3-Dimethyl-4-(1-methylpiperidin-4-yl)-6-{[3-(methylsulphonyl)phenyl]amino}-3,4-dihydropyrido[2,3-b]pyrazin-2(1H)-one], the 50% inhibitory concentration (IC50) turned out to be 75 nM in assay [1], 445 nM in the assay on B16F10 cells and 109 nM in the assay with CHL-1 cells.

With `COc1ccc(S(=O)(=O)C2CC2)cc1Nc1ccc2c(n1)N(C1CCN(C)CC1)[C@H](C)C(=O)N2C` [Example 12, (3R)-6-{[5-(Cyclopropylsulphonyl)-2-methoxyphenyl]amino}-1,3-dimethyl-4-(1-methylpiperidin-4-yl)-3,4-dihydropyrido[2,3-b]pyrazin-2(1H)-one], the IC50 in assay [1] was 67 nM; in the assay with B16F10 cells it was 81 nM; in the assay on CHL-1 cells, 13 nM.

For the molecule `COc1ccc(S(=O)(=O)C(C)C)cc1Nc1ccc2c(n1)N(C1CCN(C)CC1)[C@H](C)C(=O)N2C` [Example 13, (3R)-6-{[5-(Isopropylsulphonyl)-2-methoxyphenyl]amino}-1,3-dimethyl-4-(1-methylpiperidin-4-yl)-3,4-dihydropyrido[2,3-b]pyrazin-2(1H)-one], the 50% inhibitory concentration (IC50) was determined as 62 nM in assay [1], 59 nM in the assay on B16F10 cells and 11 nM in the assay with CHL-1 cells.

`COc1ccc(S(C)(=O)=O)cc1Nc1ccc2c(n1)N(C(C)C)[C@H](C)C(=O)N2C` [Example 14, (3R)-4-Isopropyl-6-{[2-methoxy-5-(methylsulphonyl)phenyl]amino}-1,3-dimethyl-3,4-dihydropyrido[2,3-b]pyrazin-2(1H)-one]: the IC50 in assay [1] was 76 nM; in the assay on B16F10 cells, 248 nM; in the assay on CHL-1 cells, 118 nM.

`COc1ccc(S(=O)(=O)C2CC2)cc1Nc1ccc2c(n1)N(C(C)C)[C@H](C)C(=O)N2C` [Example 15, (3R)-6-{[5-(Cyclopropylsulphonyl)-2-methoxyphenyl]amino}-4-isopropyl-1,3-dimethyl-3,4-dihydropyrido[2,3-b]pyrazin-2(1H)-one]: the IC50 in assay [1] turned out to be 49 nM; with B16F10 cells, 132 nM; in the assay with CHL-1 cells, 52 nM.

Turning to `COc1ccc(S(=O)(=O)C(C)C)cc1Nc1ccc2c(n1)N(C(C)C)[C@H](C)C(=O)N2C` [Example 16, (3R)-4-Isopropyl-6-{[5-(isopropylsulphonyl)-2-methoxyphenyl]amino}-1,3-dimethyl-3,4-dihydropyrido[2,3-b]pyrazin-2(1H)-one], the IC50 worked out at 33 nM in assay [1], 180 nM with B16F10 cells and 76 nM with CHL-1 cells.

Consider `CC1C(=O)N(C)c2ccc(Nc3cccc(S(C)(=O)=O)c3)nc2N1c1ccccc1` (stereo not drawn) [Example 17, 1,3-Dimethyl-6-{[3-(methylsulphonyl)phenyl]amino}-4-phenyl-3,4-dihydropyrido[2,3-b]pyrazin-2(1H)-one], for which the concentration for half-maximal inhibition (IC50) in assay [1] worked out at 212 nM; in the assay on B16F10 cells it was 1100 nM; in the assay with CHL-1 cells, 800 nM.

Regarding `CC(C)S(=O)(=O)c1cccc(Nc2ccc3c(n2)N(C2CCN(C)CC2)[C@H](C)C(=O)N3C)c1` [Example 19, (3R)-6-{[3-(Isopropylsulphonyl)phenyl]amino}-1,3-dimethyl-4-(1-methylpiperidin-4-yl)-3,4-dihydropyrido[2,3-b]pyrazin-2(1H)-one], the 50% inhibitory concentration (IC50) in assay [1] is 47 nM; in the assay on B16F10 cells it was 45 nM; with CHL-1 cells, 17 nM.

Regarding `CC(C)S(=O)(=O)c1ccc(OC(F)(F)F)c(Nc2ccc3c(n2)N(C2CCN(C)CC2)[C@H](C)C(=O)N3C)c1` [Example 20, (3R)-6-{[5-(Isopropylsulphonyl)-2-(trifluoromethoxy)phenyl]amino}-1,3-dimethyl-4-(1-methylpiperidin-4-yl)-3,4-dihydropyrido[2,3-b]pyrazin-2(1H)-one], the IC50 in assay [1] was 65 nM; in the assay with B16F10 cells, 49 nM; in the assay on CHL-1 cells it was 20 nM.

Consider `COc1ccc(S(=O)(=O)C(F)(F)F)cc1Nc1ccc2c(n1)N(C1CCN(C)CC1)[C@H](C)C(=O)N2C` [Example 21, (3R)-6-({2-Methoxy-5-[(trifluoromethyl)sulphonyl]phenyl}amino)-1,3-dimethyl-4-(1-methylpiperidin-4-yl)-3,4-dihydropyrido[2,3-b]pyrazin-2(1H)-one], for which the IC50 in assay [1] was found to be 58 nM; in the assay with B16F10 cells it was 52 nM; with CHL-1 cells, 16 nM.

For `COc1ccc(S(=O)(=O)C2CCOCC2)cc1Nc1ccc2c(n1)N(C1CCN(C)CC1)[C@H](C)C(=O)N2C` [Example 22, (3R)-6-{[2-Methoxy-5-(tetrahydro-2H-pyran-4-ylsulphonyl)phenyl]amino}-1,3-dimethyl-4-(1-methylpiperidin-4-yl)-3,4-dihydropyrido[2,3-b]pyrazin-2(1H)-one], the 50% inhibitory concentration (IC50) in assay [1] is 54 nM; with B16F10 cells, 140 nM; with CHL-1 cells it was 21 nM.

With `COc1ccc(S(=O)(=O)C(C)C)cc1Nc1ccc2c(n1)N(C1CCNCC1)[C@H](C)C(=O)N2C` [Example 26, (3R)-6-{[5-(Isopropylsulphonyl)-2-methoxyphenyl]amino}-1,3-dimethyl-4-(piperidin-4-yl)-3,4-dihydropyrido[2,3-b]pyrazin-2(1H)-one], the IC50 in assay [1] worked out at 52 nM; in the assay on B16F10 cells, 147 nM; in the assay with CHL-1 cells it was 22 nM.

Turning to `COc1ccc(S(=O)(=O)C(C)C)cc1Nc1ccc2c(n1)N(C1CCN(CC(F)(F)F)CC1)[C@H](C)C(=O)N2C` [Example 28, (3R)-6-{[5-(Isopropylsulphonyl)-2-methoxyphenyl]amino}-1,3-dimethyl-4-[1-(2,2,2-trifluoroethyl)piperidin-4-yl]-3,4-dihydropyrido[2,3-b]pyrazin-2(1H)-one], the figures for the IC50 (in assay [1]; in the assay with B16F10 cells; with CHL-1 cells) were 63 nM, 21 nM and 25 nM, respectively.

`COc1ccc(S(=O)(=O)C2CCOCC2)cc1Nc1ccc2c(n1)N(C1CCOCC1)[C@H](C)C(=O)N2C` [Example 34, (3R)-6-{[2-Methoxy-5-(tetrahydro-2H-pyran-4-ylsulphonyl)phenyl]amino}-1,3-dimethyl-4-(tetrahydro-2H-pyran-4-yl)-3,4-dihydropyrido[2,3-b]pyrazin-2(1H)-one]: the IC50 worked out at 44 nM in assay [1], 32 nM with B16F10 cells and 30 nM in the assay with CHL-1 cells.

For `COc1ccc(S(=O)(=O)C2CCC2)cc1Nc1ccc2c(n1)N(C1CCOCC1)[C@H](C)C(=O)N2C` [Example 35, (3R)-6-{[5-(Cyclobutylsulphonyl)-2-methoxyphenyl]amino}-1,3-dimethyl-4-(tetrahydro-2H-pyran-4-yl)-3,4-dihydropyrido[2,3-b]pyrazin-2(1H)-one], the IC50 in assay [1] came to 51 nM; in the assay on B16F10 cells it was 16 nM; in the assay with CHL-1 cells, 10 nM.

As for `CC(C)S(=O)(=O)c1ccc(OC(F)(F)F)c(Nc2ccc3c(n2)N(C2CCOCC2)[C@H](C)C(=O)N3C)c1` [Example 38, (3R)-6-{[5-(Isopropylsulphonyl)-2-(trifluoromethoxy)phenyl]amino}-1,3-dimethyl-4-(tetrahydro-2H-pyran-4-yl)-3,4-dihydropyrido[2,3-b]pyrazin-2(1H)-one], the values for the 50% inhibitory concentration (IC50) (in assay [1]; with B16F10 cells; with CHL-1 cells) were 52 nM, 16 nM and 24 nM, respectively.

`Cc1cc(Nc2ccc3c(n2)N(C2CCOCC2)[C@H](C)C(=O)N3C)ccn1` [Example 42, (3R)-1,3-Dimethyl-6-[(2-methylpyridin-4-yl)amino]-4-(tetrahydro-2H-pyran-4-yl)-3,4-dihydropyrido[2,3-b]pyrazin-2(1H)-one]: the IC50 in assay [1] amounted to 180 nM; in the assay with B16F10 cells it was 1080 nM; with CHL-1 cells, 445 nM.

For the molecule `C[C@@H]1C(=O)N(C)c2ccc(Nc3cccc(C(F)(F)F)c3)nc2N1C1CCOCC1` [Example 43, (3R)-1,3-Dimethyl-4-(tetrahydro-2H-pyran-4-yl)-6-{[3-(trifluoromethyl)phenyl]amino}-3,4-dihydropyrido[2,3-b]pyrazin-2(1H)-one], the half-inhibitory concentration (IC50) was 234 nM in assay [1], 1080 nM in the assay with B16F10 cells and 707 nM in the assay with CHL-1 cells.
